Assay results: PubChem BioAssay (NCI)
Several values for one entry are separate records, joined by “and”; a condition that tells them apart may be missing. Equal values may be shown once.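 Method: 48-hour compound exposure of cells in 96-well plates, five concentrations, linear interpolation of endpoints. GI50 is the concentration that inhibits growth by half. At the TGI there is no net growth.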

What was measured:
Experiment in all cases: NCI tumour cell line growth inhibition, 48 h
[1] = test system: OVCAR-4 ovarian
[2] = test system: UACC-257 melanoma
[3] = test system: SNB-19 CNS
[4] = test system: SK-MEL-2 melanoma
[5] = test system: ACHN renal
[6] = test system: SW-620 colon
[7] = test system: IGROV1 ovarian
[8] = test system: A498 renal
[9] = test system: HCT-116 colon
[10] = test system: SK-MEL-5 melanoma

| SMILES | GI50 [1] | TGI [1] [µM] | GI50 [2] | TGI [2] [µM] | GI50 [3] [µM] | TGI [3] [µM] | GI50 [4] | TGI [4] | GI50 [5] | TGI [5] [µM] | GI50 [6] [nM] | TGI [6] [µM] | GI50 [7] [µM] | TGI [7] [µM] | GI50 [8] | TGI [8] [µM] | GI50 [9] | TGI [9] [µM] | GI50 [10] | TGI [10] |
| --- | --- | --- | --- | --- | --- | --- | --- | --- | --- | --- | --- | --- | --- | --- | --- | --- | --- | --- | --- | --- |
| C=C1CCC2C(C)(COC(=O)CC)C(OC(=O)CC)CCC2(C)C1C/C=C1/C(=O)OCC1OC(=O)CC (configuration not stated) | 2.33 µM | 6.9 | 1.33 µM | 2.7 | 3.74 | 14.7 | 1.44 µM | 3.02 µM | 1.74 µM | 3.24 | 1170 | 2.44 | 1.9 | 3.69 | 4.05 µM | 13.3 | 1.14 µM | 2.55 | 2.08 µM | 4.39 µM |
| COc1ccc(-c2c3c(n(C4OC(COC(C)=O)C(OC(C)=O)C(OC(C)=O)C4OC(C)=O)c(=S)c2C#N)CC(C)(C)CC3=O)cc1 (configuration not stated) | 45.4 µM and > 100 µM | > 100 | 27.9 µM and > 100 µM | > 100 |  | > 100 | 26.3 µM and > 100 µM | 76.4 µM and > 100 µM | 46.2 µM and > 100 µM | > 100 |  | > 100 |  | > 100 | 42.1 µM and > 100 µM | > 100 | 41.8 µM and > 100 µM | > 100 | 23.1 µM and 61.1 µM | 75.7 µM and > 100 µM |
| COC(=O)C(Cc1nc2ccccc2[nH]c1=O)C(=O)C(=O)Nc1ccc([N+](=O)[O-])cc1[N+](=O)[O-] (configuration not stated) |  | 64.1 |  | 36.9 |  | > 100 |  | 69 µM |  | 33.3 |  | 39.6 |  | 55.4 |  | 40.9 |  | 46.5 |  | 33.1 µM |
| O=S1Nc2c(Cl)cc(Cl)c3c(Cl)cc(Cl)c(c23)N1 |  | 91.2 |  | > 100 |  | > 100 |  | > 100 µM |  | 73.8 |  | > 100 |  | > 100 |  | 74.4 |  | > 100 |  | > 100 µM |
| CC[N+]1(C)CCC(O)(c2ccc(OC)cc2)C(C(=O)c2ccc(OC)cc2)C1 (configuration not stated) |  | 51.2 |  | 35.4 |  | 47.7 |  | 34.3 µM |  | 27.2 |  | 4.82 |  | 41.2 |  | 32.6 |  | 28.1 |  | 29.5 µM |
| CCc1cc(CCC(=O)Nc2c(C)cccc2C)[nH]n1 |  | > 100 |  | > 100 |  | > 100 |  | > 100 µM |  | > 100 |  | > 100 |  | > 100 |  | > 100 |  | > 100 |  | > 100 µM |
| Cc1cc(Cl)ccc1NC(=O)C(=O)C(C(=O)c1ccc2ccccc2c1)C1OC(=O)c2ccccc21 (configuration not stated) |  | 25.5 |  | 47.8 |  | 18.3 |  | 27.3 µM |  | > 100 |  | 84.6 |  | > 100 |  | 25.6 |  | 21.7 |  | 26.9 µM |
| O=Cc1cccc2c1Oc1c(cccc1C(=O)O)S2 |  | > 100 |  | > 100 |  | > 100 |  | > 100 µM |  | > 100 |  | > 100 |  | > 100 |  | > 100 |  | > 100 |  | > 100 µM |
| COc1ccc(C2SCC(=O)N2NC(=O)c2ccc(NC(C)=O)cc2)cc1 (configuration not stated) |  | > 100 |  | > 100 |  | > 100 |  | > 100 µM |  | > 100 |  | > 100 |  | > 100 |  | > 100 |  | > 100 |  | > 100 µM |
| COc1cccc(/C=C/C(=O)c2ccc(Cl)cc2Cl)c1 | 10.9 µM | 41 | 9.33 µM | 17.4 | 8.07 | 16.8 | 20.3 µM | > 50 µM | 14.3 µM | 39.2 | 1820 | 7.62 | 15 | > 50 | 11.9 µM | 21 | 4.94 µM | 19.1 | 9.38 µM | 17.6 µM |
| COc1cccc(C2c3cc4c(cc3OC(N3CCCC3)C2C)OCO4)c1O (configuration not stated) |  | > 94.2 |  | 40.3 |  | > 100 |  | 30.4 µM |  | > 88.7 |  | > 100 |  | 99.1 |  | 33.7 |  | 35 |  | 16.3 µM |
| CN1C(=O)C(=O)c2cc3c(c4c2c1cc1ccccc14)OCO3 |  | > 100 |  | > 100 |  | > 100 |  | > 100 µM |  | > 100 |  | > 100 |  | > 100 |  | > 100 |  | > 100 |  | > 100 µM |
| Cc1cccc(C)c1NC(=O)Nc1ccc(S(N)(=O)=O)cc1 |  | > 100 |  | > 100 |  | > 100 |  | > 100 µM |  | > 100 |  | > 100 |  | > 100 |  | > 100 |  | > 100 |  | > 100 µM |
